Test results published in patent US20090253709A1 (NATIONAL DEFENSE MEDICAL CENTER, priority 2008, published 2009).

Experiments:
Experiment in all cases: In vitro cytotoxicity, Development Therapeutics Program
Format in all cases: cell-based
[1] = tested on: PC-3; settings: PC-3, prostate cancer; 1.0×10^−5 M
From the text: (§1) From the in vitro experiments of the Development Therapeutics Program of the Cancer Research Institute, the United States, it was known that the synthetic heterocyclic anthraquinone derivatives of the present invention have different inhibition levels to the different cancer cell lines under the concentration of 1.0×10^−5 M. Please refer to Table 2, which is the result of in vitro cytotoxicity of 2,7-disubstituted anthraquinone derivatives of the present invention.

[2] = tested on: MDA-MB-231/ATCC; settings: breast cancer, 1.0×10^−5 M
From the text: as §1

[3] = tested on: HCC-2998; settings: HCC-2998, colon cancer; 1.0×10^−5 M
From the text: as §1

[4] = tested on: SF-295; settings: SF-295, CNS cancer; 1.0×10^−5 M
From the text: as §1

[5] = tested on: SNB-19; settings: SNB-19, CNS cancer; 1.0×10^−5 M
From the text: as §1

[6] = tested on: SK-MEL-28; settings: SK-MEL-28, melanoma; 1.0×10^−5 M
From the text: as §1

[7] = tested on: HS 578T; settings: breast cancer, 1.0×10^−5 M
From the text: as §1

[8] = tested on: NCI-H23; settings: NCI-H23, non-small cell lung cancer; 1.0×10^−5 M
From the text: as §1

[9] = tested on: SF-268; settings: SF-268, CNS cancer; 1.0×10^−5 M
From the text: as §1

[10] = tested on: HT29; settings: HT29, colon cancer; 1.0×10^−5 M
From the text: as §1

[11] = tested on: SN12C; settings: renal cancer, 1.0×10^−5 M
From the text: as §1

[12] = tested on: SK-MEL-2; settings: SK-MEL-2, melanoma; 1.0×10^−5 M
From the text: as §1

[13] = tested on: HCT-15; settings: HCT-15, colon cancer; 1.0×10^−5 M
From the text: as §1

[14] = tested on: EKVX; settings: non-small cell lung cancer, 1.0×10^−5 M
From the text: as §1

[15] = tested on: MALME-3M; settings: melanoma, 1.0×10^−5 M
From the text: as §1

[16] = tested on: LOX IMVI; settings: melanoma, 1.0×10^−5 M
From the text: as §1

[17] = tested on: A498; settings: A498, renal cancer; 1.0×10^−5 M
From the text: as §1

[18] = tested on: DU-145; settings: DU-145, prostate cancer; 1.0×10^−5 M
From the text: as §1

[19] = tested on: OVCAR-4; settings: OVCAR-4, ovarian cancer; 1.0×10^−5 M
From the text: as §1

[20] = tested on: UACC-62; settings: UACC-62, melanoma; 1.0×10^−5 M
From the text: as §1

[21] = tested on: BT-549; settings: BT-549, breast cancer; 1.0×10^−5 M
From the text: as §1

[22] = tested on: MOLT-4; settings: MOLT-4, leukemia; 1.0×10^−5 M
From the text: as §1

[23] = tested on: HCT-116; settings: HCT-116, colon cancer; 1.0×10^−5 M
From the text: as §1

[24] = tested on: CAK1-1; settings: CAK1-1, renal cancer; 1.0×10^−5 M
From the text: as §1

[25] = tested on: HL-60(TB); settings: leukemia, 1.0×10^−5 M
From the text: as §1

[26] = tested on: KM12; settings: KM12, colon cancer; 1.0×10^−5 M
From the text: as §1

[27] = tested on: SNB-75; settings: SNB-75, CNS cancer; 1.0×10^−5 M
From the text: as §1

[28] = tested on: SW-620; settings: SW-620, colon cancer; 1.0×10^−5 M
From the text: as §1

[29] = tested on: SK-MEL-5; settings: SK-MEL-5, melanoma; 1.0×10^−5 M
From the text: as §1

[30] = tested on: NCl-H460; settings: NCl-H460, non-small cell lung cancer; 1.0×10^−5 M
From the text: as §1

[31] = tested on: MCF7; settings: MCF7, breast cancer; 1.0×10^−5 M
From the text: as §1

[32] = tested on: SR; settings: leukemia, 1.0×10^−5 M
From the text: as §1

[33] = tested on: OVCAR-5; settings: OVCAR-5, ovarian cancer; 1.0×10^−5 M
From the text: as §1

[34] = tested on: NCl-H522; settings: NCl-H522, non-small cell lung cancer; 1.0×10^−5 M
From the text: as §1

[35] = tested on: SF-539; settings: SF-539, CNS cancer; 1.0×10^−5 M
From the text: as §1

[36] = tested on: CCRF-CEM; settings: leukemia, 1.0×10^−5 M
From the text: as §1

CCN(CC)CCC(=O)Nc1ccc2c(c1)C(=O)c1cc(NC(=O)CCN(CC)CC)ccc1C2=O [Compound 16, 2,7-Bis[3-(diethylamino)propionamido]anthraquinone]
Cellular growth rate (%) [1]: 13.59% | Cellular growth rate (%) [2]: 31.32% | Cellular growth rate (%) [3]: −87.42% | Cellular growth rate (%) [4]: −19.91% | Cellular growth rate (%) [5]: 75.84% | Cellular growth rate (%) [6]: 2.56% | Cellular growth rate (%) [7]: −23.77% | Cellular growth rate (%) [8]: 30.34% | Cellular growth rate (%) [9]: 35.18% | Cellular growth rate (%) [10]: 3.30% | Cellular growth rate (%) [11]: 8.63% | Cellular growth rate (%) [12]: −60.38% | Cellular growth rate (%) [13]: 17.42% | Cellular growth rate (%) [14]: 59.99% | Cellular growth rate (%) [15]: 62.39% | Cellular growth rate (%) [16]: 3.39% | Cellular growth rate (%) [17]: −38.76% | Cellular growth rate (%) [18]: 10.20% | Cellular growth rate (%) [19]: 24.92% | Cellular growth rate (%) [20]: 44.45% | Cellular growth rate (%) [21]: 57.04% | Cellular growth rate (%) [22]: 5.42% | Cellular growth rate (%) [23]: −32.45% | Cellular growth rate (%) [24]: 3.27% | Cellular growth rate (%) [25]: 14.01% | Cellular growth rate (%) [26]: 21.82% | Cellular growth rate (%) [27]: 46.62% | Cellular growth rate (%) [28]: 16.93% | Cellular growth rate (%) [29]: 82.75% | Cellular growth rate (%) [30]: 9.50% | Cellular growth rate (%) [31]: 9.34% | Cellular growth rate (%) [32]: −0.39% | Cellular growth rate (%) [33]: 33.63% | Cellular growth rate (%) [34]: 27.98% | Cellular growth rate (%) [35]: 37.15% | Cellular growth rate (%) [36]: −6.02%
